The text below walks through data of US8822419B2, “Membrane resident peptide in anti-cancer peptides causes tumor cell necrosis rather than apoptosis of cancer cells” (The Research Foundation of State University of New York, priority 2008, dated 2014).

Entries after “also recorded” stand apart in the source; their conditions may differ.

Data set [1] deals with MiaPaCa-2 cells. As to the kind of experiment: Incubation of MiaPaCa-2 cells with peptides; cell counts by trypan blue exclusion, MTT. Format: cell-based, human. How it is done:
Duplicate sets of 6×10^6 MiaPaCa-2 cells were incubated with different concentrations of PNC-28, i.e., 5, 10, 20, 40, 80 and 160 μmol/ml. […] All incubations were carried out using a protocol identical to that described in ref. 1 (1). After the cells had been allowed to adhere to the tissue culture dish (TCD) for 24 hours the medium was removed from each TCD, and new medium containing the same or no peptide concentration was added. Medium from each TCD was removed every 24 h, and fresh medium with its respective peptide at the appropriate concentration was added. Cells were inspected daily for changes in cell growth, morphology, and viability. At the end of each day over a five-day period, duplicate cell counts were performed for each incubation using the trypan blue exclusion method. In addition, cell viability was also determined by 3-[4,5-dimethylthiazol-2-yl]-2,5 diphenyl tetrazolium bromide (MTT) assay according to the manufacturers' instructions (Promega Corporation, Madison, Wis., USA).

Data set [2] has as its system MiaPaCa-2 cells. Nature of the data set: Time-lapse electron microscopy of MiaPaCa-2 cells treated with PNC-28. Format: cell-based, human. The note with it: 25 μmol/ml, 15 min, FIG. 4B. The protocol: Time-lapse electron microscopy (EM) was used to examine the ultrastructural features of cell death. MiaPaCa-2 cells were grown for 24 h on Thermanox cover slips (Lux Scientific), and then treated with 25 μmol of PNC-28 for 1 and 15 min, along with a corresponding control group without peptide. The cells were washed with PBS solution and then fixed with 2.5% gluteraldehyde-PBS. The fixed cultures were rinsed in a 0.1 M phosphate buffer (pH 7.3), post fixed in 2% (0.08 m) osmium tetroxide-PBS (pH 7.3), dehydrated in a graded series of ethanol and propylene oxide and embedded in Epon 812. Sections were cut at 700 Å, stained with uranyl acetate and lead citrate and examined with a Jeol JEM 1010 Electron Microscope.

The test system of data set [3] is MiaPaCa-2 cells. Nature of the data set: Caspase (CPP32) activity assay as marker for apoptosis. Format: cell-based, human. The protocol: (§1) Cells from culture plates at 18, 44, 66 and 90 h time points were lysed in situ in cell lysis buffer [1% Triton X-100 in 0.05 M Tris-HCl (pH 8.0), […], 0.02% Na azide, 0.1 mg/ml phenylmethylsulfonylfluoride (PMSF), and 0.001 mg/ml Aprotinin]. Lysates were subjected to 10% SDS-PAGE followed by electrotransfer to nitrocellulose and immunoblotting with antibodies to GFP and p53 (Santa Cruz Biotechnology, Santa Cruz, Calif.). Antibody-labeled proteins were identified by chemiluminescence using ECL methodology (Amersham)(1). Assays for elevated caspase expression were performed using the Clontech (Palo Alto, Calif.) for caspase (CPP32) activity (2). As a positive control for the caspase activity assay, Mia-PaCa-2 cells were incubated with tumor necrosis factor (TNF) (Sigma, St. Louis, Mo.) at a concentration of 10 ng/ml for 24 h. In addition, to detect if significant cell necrosis occurred, the CytoTox96 assay was used (Promega, Madison, Wis.) for LDH released into the cell culture medium as performed on several breast cancer cell lines (2).

Data set [4] concerns MiaPaCa-2 cells. Nature of the data set: Immunoblotting of MiaPaCa-2 cell lysates for p53 and waf^p21, with caspase activity. Format: cell-based, human. As to conditions: at near 100 percent cell death: 96 hr transfected cells, 48 hr PNC-28 75 μmol/ml, FIG. 6. How it is done:
For protein analyses, and detection of apoptosis, 2×10^6 cells were seeded into 10 cm diameter TCDs and transfected with DNA: Lipofectamine 2000 proportionally adjusted to the increased area. When the cell density reached 90-100%, the cells of the experimental and sham-transfected group were detached using trypsin and plated into four new TCD's in which they were allowed to grow in complete medium. At defined time points cells were released from adherence with 10 mM EDTA in PBS and were lysed in lysing buffer [1% Triton X-100 in 0.05 M Tris-HCl (pH 8.0), […], 0.02% Na azide, 0.01 mg/ml phenylmethylsulfonylfluoride (PMSF), and 0.001 mg/ml Aprotinin]. Protein equivalents of 10^6 cells, i.e., ˜30 μg/lane, were then subjected to SDS-PAGE using 10% Tris-HCl gels and, in some experiments, 16% Tricine Peptide Gels (Biorad, Hercules, Calif.) to detect PNC-28 (−3104 Da) and p53 17-26 (−1500 Da). […] Semi-quantitation of immunoblotting results was performed by measuring luminosity of bands in a single scanned developed x-ray film, using the histogram option of Adobe Photoshop 5.5. […] Opacity of each band was calculated by the equation, Opacity=255-Luminosity-background (15). […]
On the technique in general: Immunoblotting shows a protein as a band on a membrane.

Data set [5] relates to MiaPaCa-2 cells. As to the kind of experiment: LDH release into cell culture medium (CytoTox96) as marker for necrosis. Format: cell-based, human. How it is done: as §1
(LDH in the medium is a marker of cell lysis.)

Data set [6] relates to cancer cells. The note with it: previous studies (1-3), also in cancer cells in which p53 protein was absent; cited from earlier work.
Setting [7] is: all doses over the 20-75 μmol/ml range, FIG. 4D.

`CC[C@H](C)[C@H](NC(=O)[C@H](CCCNC(=N)N)NC(=O)[C@H](CCCCN)NC(=O)CNC(=O)[C@@H](NC(=O)[C@H](CO)NC(=O)[C@H](Cc1ccccc1)NC(=O)[C@@H]1CCCN1C(=O)[C@@H](N)CCSC)[C@@H](C)O)C(=O)N[C@@H](CCSC)C(=O)N[C@@H](CC(C)C)C(=O)NCC(=O)N[C@@H](CCC(=O)O)C(=O)N[C@@H](CCCCN)C(=O)N[C@@H](CCCCN)C(=O)N[C@@H](Cc1c[nH]c2ccccc12)C(=O)N[C@@H](CCCCN)C(=O)N[C@@H](CCSC)C(=O)N[C@@H](CCCNC(=N)N)C(=O)N[C@@H](CCCNC(=N)N)C(=O)N[C@@H](CC(N)=O)C(=O)N[C@@H](CCC(N)=O)C(=O)N[C@@H](Cc1ccccc1)C(=O)N[C@@H](Cc1c[nH]c2ccccc12)C(=O)N[C@H](C(=O)N[C@@H](CCCCN)C(=O)N[C@H](C(=O)N[C@@H](CCC(N)=O)C(=O)N[C@@H](CCCNC(=N)N)C(=O)NCC(=O)O)C(C)C)C(C)C` [PNC-29, reference compound]: the “cytotoxicity, number of remaining cells versus untreated” value in data set [1] (75 μmol/ml, 48 h, FIG. 3) is recorded as “no effect on cell growth”.
ETFSDLWKLLKKWKMRRNQFWVKVQRG (PNC-28): the “plasma membrane integrity in electron micrographs” value in data set [2] is given as “exhibit lysis of their plasma membranes”. The caspase level result is given as “only baseline levels” in data set [3] (25 μmol/ml, 24 h, FIG. 4C) and “only background levels of caspase” in data set [3] (setting [7]). The caspase result was “approximately 0.03” in data set [3] (25 umol/ml, 24 h, FIG. 4D); “approximately 0.02” in data set [3] (50 umol/ml, 24 h, FIG. 4D); “approximately 0.015” in data set [3] (75 umol/ml, 24 h, FIG. 4D). For the same compound, in data set [4], the “levels of p53, waf^p21 and caspase activity” value is given as “not observed”. Moreover, the “time to cell death” value in data set [1] (20 μmol/ml) stood at 1 week. In addition, the cell death entry in data set [1] (20 μmol/ml, 48 h, FIG. 2) is recorded as “roughly 35%”; in data set [1] (80 μmol/ml, 48 h, FIG. 2), “over 80%”; in data set [1] (doses between 20 and 75 μmol/ml, time decreasing with dose), roughly 100%. Also, the “time to similar (near total) cell death” value in data set [1] (40 μmol/ml) stood at 4 days. The cell morphology entry in data set [1] (75 μmol/ml, 24 h, FIG. 1B) is reported as “appear necrotic”. For the same compound, the “cell death as measured by trypan blue dye uptake” value in data set [1] (75 μmol/ml, 48 h) is roughly 100%. Moreover, the “time to near total cell death” value in data set [1] (80 μmol/ml) is on record as 48 h. Moreover, the LDH activity entry in data set [5] (25 μmol/ml, 24 h, FIG. 4A) is reported as “almost to the same extent as cells that were lysed with lysis buffer; also recorded: high levels of LDH”. Also, the LDH result in data set [5] (25 umol/ml, 24 h, FIG. 4D) is “approximately 0.235 OD”; in data set [5] (50 umol/ml, 24 h, FIG. 4D), “approximately 0.44 OD”; in data set [5] (75 umol/ml, 24 h, FIG. 4D), “approximately 0.35 OD”. For the same compound, in data set [5] (setting [7]), the LDH release entry is “early release of LDH”. The “mode of tumor cell death” value in data set [6] is “induced tumor cell necrosis, not apoptosis”.
With TNF-α [reference compound], in data set [3] (10 ng/ml, 24 h, FIG. 4C condition 1), the “caspase 3 activity, positive control” value is recorded as “Maximal caspase release”.
For the compound “PPLSQETFSDLWKLLKKWKMRRNQFWVKVQRG (PNC-27)”, the “mode of tumor cell death” value in data set [6] is reported as “induced tumor cell necrosis, not apoptosis”.
